# Source: patent US20230248744A1, “25-HYDROXYVITAMIN D2 AND/OR D3 FOR USE IN OBESITY” (CARBOGEN AMCIS B.V., priority 2020, published 2023)
# Where two headings read alike, the source gives them in different places.
# Assay: Double-blind randomized crossover pharmacokinetic study, single oral 900 μg vitamin D3 or 25(OH)D3
# Assay type: in vivo, human
# Settings: for Cmax / Tmax / concentration at 14 days / half-life / AUC: both sexes, human, in vivo, po, single oral 900 μg, mean ± SEM; for Cmax / Tmax / half-life / AUC: 900 ug; for concentration at 14 days: 900 μg, read-out: Ctrough (trough level at day 14); for half-life: read-out: T1/2 (elimination half-life) (converted); for blood level of vitamin D3 relative to Cmax: FIG. 4a, turning point after about 2% days, single oral 900 μg vitamin D3
# Protocol: The conclusions as presented herein are based on the following experiments: In a double-blinded cross-over study single high dosages (900 μg total in two soft gel capsules containing 450 μg) of either vitamin D3 or 25(OH)D3 were administered to vitamin D-deficient volunteers including healthy controls as well as subjects with a history of malabsorption. At the outset, the BMI was determined. Blood samples were then taken at baseline and at 2, 4, 6, 8, and 12 hours as well as 1, 2, 3, 7, and 14 days after administration (FIG. 2). All the samples were analyzed for their contents in vitamin D3 per se as well as 25(OH)D3. […] In addition, peak levels were more rapidly reached with 25(OH)D3 than with vitamin D3 (see FIG. 5). The immediate increase in serum 25(OH)D3 compared to the delayed increase observed with vitamin D3 supports the concept that 25(OH)D3 is being rapidly absorbed from the small intestine into the portal circulation, whereas vitamin D3 first needs to be incorporated into the chylomicrons which are absorbed into the lymphatic system.
# The pharmacokinetic parameters of orally administered 25(OH)D3 and vitamin D3 (both provided for formulation in form of visually identical soft-gel pills) were studied based on the corresponding serum concentration-time curves in healthy adults and adults with a history of intestinal malabsorption (see FIG. 2). Cinical safety has been evaluated by monitoring serum calcium, phosphorus, parathyroid hormone (PTH) and 25(OH)D levels at the beginning and end of the study. Furthermore, the distribution of supplemented 25(OH)D3 (or 25(OH)D2) into adipose tissue and the role it is playing there was also studied.
# Serum levels of calcium, phosphorus, albumin, creatinine and intact parathyroid hormone (iPTH) were determined at baseline and at the end of each 14-day pharmacokinetic study (see Table 4). The pharmacokinetic parameters have been determined by evaluating the serum concentration-time curves in patients with malabsorption syndrome and healthy controls (Tables 5 and 6).
# The primary outcomes of the study are the serum pharmacokinetic parameters of 25(OH)D3 and vitamin D3 after a single oral administration of 900 μg of each in a double-blind randomized crossover study.
# Adult patients (18 years and older) with a history of intestinal malabsorption (n=10) and healthy adult volunteers (n=10); (of both sexes and all ethnicities) has been recruited in this randomized double-blinded crossover study. The BMI has been determined and recorded at baseline. All subjects have been prescreened for 25(OH)D levels to include subjects with 25(OH)D<30 ng/mL. The subjects have been randomized to receive two oral doses of 450 μg taken simultaneously (total 900 μg) of either vitamin D3 or 25(OH)D3. Blood samples were taken at baseline and at 2, 4, 6, 8, 12 hours and days 1, 2, 3, 7 and 14. There was a two weeks washout period before the subject received in a double blinded manner, two oral doses of 450 μg taken simultaneously (total 900 μg) of either 25(OH)D3 or vitamin D3 (depending on which one they took in the randomization) any time after the 2 week washout. Blood samples were taken at baseline and at 2, 4, 6, 8, 12 hours and days 1, 2, 3, 7 and 14 days. Serum levels of calcium, phosphorus, albumin, creatinine, and intact parathyroid hormone (iPTH) were obtained at baseline and at day 14 for each arm (or within a reasonable time if the study participant was unable to come on the exact day).
# The individuals participating in the study had, after signing a consent form, been randomized by a computer randomization chart in a blinded manner to receive two oral doses of 450 μg taken simultaneously (total 900 μg) of either vitamin D3 or 25(OH)D3. Blood samples have been taken at baseline and at 2, 4, 6, 8, 12 hours and days 1, 2, 3, 7 and 14. […]
# [1] = healthy participants with higher BMI (N = 5)
# [2] = healthy participants with lower BMI (N = 5)
# [3] = patients with fat malabsorption (N = 6)
smiles,measurement,setting,value
"C=C1CC[C@H](O)C/C1=C/C=C1\CCC[C@]2(C)[C@@H]([C@H](C)CCCC(C)C)CC[C@@H]12 [vitamin D3, cholecalciferol]",time at which the peak of the serum concentration is reached,"FIG. 5, oral 900 μg",about 12 hours
same,bioavailability in subjects with a history of vitamin D/fat malabsorption,"after administration of the respective product, FIGS. 3a and b",reduced
same,Cmax,healthy participants (N = 10),53.5 ± 6 ng/mL
same,Tmax,healthy participants (N = 10),10.4 ± 0.7 h
same,concentration at 14 days,healthy participants (N = 10),0.3 ± 0.3 ng/mL
same,half-life,healthy participants (N = 10),31.4 ± 3.3 h
same,AUC,"healthy participants (N = 10), serum level of the administered substance",3260 ± 496 ng·h/mL
same,AUC,[1],2090 ± 547 ng·h/mL
same,Cmax,[1],44.4 ± 9.3 ng/mL
same,Tmax,[1],9.6 ± 1 h
same,concentration at 14 days,[1],0 ng/mL
same,half-life,[1],23.8 ± 3.1 h
same,AUC,[2],4430 ± 350 ng·h/mL
same,Cmax,[2],62.6 ± 5.7 ng/mL
same,Tmax,[2],11.2 ± 0.8 h
same,concentration at 14 days,[2],0.6 ± 0.6 ng/mL
same,half-life,[2],39 ± 3.4 h
same,Cmax,[3],24.3 ± 8.4 ng/mL
same,Tmax,[3],11.3 ± 0.7 h
same,concentration at 14 days,[3],0.1 ± 0.1 ng/mL
same,half-life,[3],28.7 ± 1.5 h
same,AUC,"patients with fat malabsorption (N = 6), serum level of the administered substance",1180 ± 425 ng·h/mL
same,blood level of vitamin D3 relative to Cmax,high BMI subjects,≈ 23 % of Cmax
same,blood level of vitamin D3 relative to Cmax,low BMI (normal) subjects,41 % of Cmax and ≈ 41 % of Cmax
